The record followed here is patent US10081631B2, “2-(1H-indazol-3-yl)-1H-imidazo[4,5-C]pyridine and therapeutic uses thereof” (Samumed, LLC, priority 2014, dated 2018).

Assay [1] has as its system primary human fibroblasts derived from IPF patients (LL29 cells). As to the kind of experiment: Inhibition of fibrosis: TGF-β1-treated primary human fibroblasts from IPF patients (LL29), αSMA staining. Particulars: Fibroblast, 96 h, TGF-β1 20 ng/mL, 4 days, % αSMA-positive cells. Type of assay: cell-based. Put shortly: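 […] (0.1% DMSO) on LL29 cells in F12 with 1% FBS, with TGF-β1 (20 ng/mL) added 1 h after plating; 4 days at 37 °C. SYTOX-positive dead cells were excluded and the % αSMA-positive cells was imaged, normalized to TGF-β1/DMSO wells, triplicates; EC50 by non-linear regression.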

Assay [2] concerns Wnt activity (Sp5-Luc reporter, SW480 colon carcinoma cells). As to the kind of experiment: Screening assay for Wnt activity: Sp5-Luc reporter gene assay in SW480 cells. The conditions noted are these: Homo sapiens, 42 h incubation, luminescence. Type of assay: cell-based. Put shortly: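 IC50 values come from variable-slope four-parameter fits of luciferase signal normalized to DMSO wells. Stable Sp5-Luc reporter SW480 colon carcinoma cells were exposed to compounds in a 3-fold dilution series (source plates from 10 mM stock) for forty-two hours at 37 °C.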
(In general: Reporter assays use an easily measured gene product as a stand-in for the process of interest.)

pEC50, pIC50: −log10 of the molar value. Bounds are passed on as bounds.

As usually defined, the pEC50 is the EC50 on a negative log10 scale, so that one unit is a factor of ten. A low value points to a high EC50. By pIC50 is commonly meant the negative decadic logarithm of the IC50, by convention in mol/L. Higher therefore signals a small IC50. In turn, `Cc1ccc(-c2nccc3[nH]c(-c4n[nH]c5ccc(-c6cncc(CN7CCCCC7)c6)cc45)nc23)s1` [Compound 353, 4-(5-Methylthiophen-2-yl)-2-(5-(5-(piperidin-1-ylmethyl)pyridin-3-yl)-1H-indazol-3-yl)-1H-imidazo[4,5-c]pyridine] showed a pEC50 in assay [1] of 8.05. This molecule also showed a pIC50 in assay [2] of 6.07.
The corresponding values for `Cc1ccc(-c2nccc3[nH]c(-c4n[nH]c5ccc(-c6cncc(NC(=O)CC(C)(C)C)c6)cc45)nc23)s1` [Compound 354, 3,3-Dimethyl-N-(5-(3-(4-(5-methylthiophen-2-yl)-1H-imidazo[4,5-c]pyridin-2-yl)-1H-indazol-5-yl)pyridin-3-yl)butanamide] are 7.07 and 7.90.
In the same order, the values of `Cc1ccc(-c2nccc3[nH]c(-c4n[nH]c5ccc(-c6cncc(NC(=O)C7CCC7)c6)cc45)nc23)s1` [Compound 358, N-(5-(3-(4-(5-Methylthiophen-2-yl)-1H-imidazo[4,5-c]pyridin-2-yl)-1H-indazol-5-yl)pyridin-3-yl)cyclobutanecarboxamide] are 7.68 and 8.05.
`CC(=O)c1ccc(-c2nccc3[nH]c(-c4n[nH]c5ccc(-c6cccnc6)cc45)nc23)s1` [Compound 368, 1-(5-(2-(5-(Pyridin-3-yl)-1H-indazol-3-yl)-1H-imidazo[4,5-c]pyridin-4-yl)thiophen-2-yl)ethan-1-one]: the pEC50 in assay [1] is 7.85. Moreover, the negative-log IC50 (pIC50) in assay [2] is above 9.00.
The corresponding values for `CC(=O)c1ccc(-c2nccc3[nH]c(-c4n[nH]c5ccc(-c6cncc(NC(=O)Cc7ccccc7)c6)cc45)nc23)s1` [Compound 374, N-(5-(3-(4-(5-Acetylthiophen-2-yl)-1H-imidazo[4,5-c]pyridin-2-yl)-1H-indazol-5-yl)pyridin-3-yl)-2-phenylacetamide] are 8.05 and 8.05.
In the same order, the values of `CC(=O)c1ccc(-c2nccc3[nH]c(-c4n[nH]c5ccc(-c6cncc(NC(=O)C7CCCCC7)c6)cc45)nc23)s1` [Compound 386, N-(5-(3-(4-(5-Acetylthiophen-2-yl)-1H-imidazo[4,5-c]pyridin-2-yl)-1H-indazol-5-yl)pyridin-3-yl)cyclohexanecarboxamide] are 6.27 and 6.32.
With `Cc1ccncc1-c1ccc2[nH]nc(-c3nc4c(-c5cc(F)cc(CNS(C)(=O)=O)c5)nccc4[nH]3)c2c1` [Compound 395, N-(3-Fluoro-5-(2-(5-(4-methylpyridin-3-yl)-1H-indazol-3-yl)-1H-imidazo [4,5-c]pyridin-4-yl)benzyl)methanesulfonamide], in assay [1], the pEC50 was 7.59. Further, the pIC50 in assay [2] is 7.07.
In the same order, the values of `CS(=O)(=O)NCc1cc(F)cc(-c2nccc3[nH]c(-c4n[nH]c5ccc(-c6cncc(NC(=O)Cc7ccccc7)c6)cc45)nc23)c1` [Compound 400, N-(5-(3-(4-(3-Fluoro-5-(methylsulfonamidomethyl)phenyl)-1H-imidazo[4,5-c]pyridin-2-yl)-1H-indazol-5-yl)pyridin-3-yl)-2-phenylacetamide] are 8.05 and below 5.00.
In assay [1], `CS(=O)(=O)NCc1cc(F)cc(-c2nccc3[nH]c(-c4n[nH]c5ccc(-c6cncc(NC(=O)c7ccccc7)c6)cc45)nc23)c1` [Compound 401, N-(5-(3-(4-(3-Fluoro-5-(methylsulfonamidomethyl)phenyl)-1H-imidazo[4,5-c]pyridin-2-yl)-1H-indazol-5-yl)pyridin-3-yl)benzamide] gave a pEC50 of 5.00. This molecule also had a pIC50 in assay [2] of 7.49.
`CCCC(=O)Nc1cncc(-c2ccc3[nH]nc(-c4nc5c(-c6cc(F)cc(CNS(C)(=O)=O)c6)nccc5[nH]4)c3c2)c1` [Compound 407, N-(5-(3-(4-(3-Fluoro-5-(methylsulfonamidomethyl)phenyl)-1H-imidazo[4,5-c]pyridin-2-yl)-1H-indazol-5-yl)pyridin-3-yl)butyramide] showed a pEC50 in assay [1] of 7.72. This molecule gave a pIC50 in assay [2] of 7.62.
`CS(=O)(=O)NCc1cc(F)cc(-c2nccc3[nH]c(-c4n[nH]c5ccc(-c6cncc(CNCc7ccccc7)c6)cc45)nc23)c1` [Compound 413, N-(3-(2-(5-(5-((Benzylamino)methyl)pyridin-3-yl)-1H-indazol-3-yl)-1H-imidazo[4,5-c]pyridin-4-yl)-5-fluorobenzyl)methanesulfonamide] gave a pEC50 in assay [1] of 8.05. Also, the pIC50 in assay [2] is 6.73.
On to `CS(=O)(=O)NCc1cc(F)cc(-c2nccc3[nH]c(-c4n[nH]c5ccc(-c6cncnc6)cc45)nc23)c1` [Compound 416, N-(3-Fluoro-5-(2-(5-(pyrimidin-5-yl)-1H-indazol-3-yl)-1H-imidazo[4,5-c]pyridin-4-yl)benzyl)methanesulfonamide], for which the negative logarithm of the EC50 (pEC50) in assay [1] was 7.57. Also, in assay [2], the pIC50 is above 9.00.
The corresponding values for `CCNCc1cncc(-c2ccc3[nH]nc(-c4nc5c(-c6cc(F)cc(NCCN(C)C)c6)nccc5[nH]4)c3c2)c1` [Compound 422, N^1-(3-(2-(5-(5-((Ethylamino)methyl)pyridin-3-yl)-1H-indazol-3-yl)-1H-imidazo[4,5-c]pyridin-4-yl)-5-fluorophenyl)-N^2,N^2-dimethylethane-1,2-diamine] are 6.97 and 6.97.
In the same order, the values of `CC(C)Nc1cncc(-c2ccc3[nH]nc(-c4nc5c(-c6cc(F)cc(NCCN(C)C)c6)nccc5[nH]4)c3c2)c1` [Compound 428, N^1-(3-Fluoro-5-(2-(5-(5-(isopropylamino)pyridin-3-yl)-1H-indazol-3-yl)-1H-imidazo[4,5-c]pyridin-4-yl)phenyl)-N^2,N^2-dimethylethane-1,2-diamine] are 8.05 and 8.22.
`CCCCC(=O)Nc1cncc(-c2ccc3[nH]nc(-c4nc5c(-c6cc(F)cc(NCCN(C)C)c6)nccc5[nH]4)c3c2)c1` [Compound 434, N-(5-(3-(4-(3-((2-(Dimethylamino)ethyl)amino)-5-fluorophenyl)-1H-imidazo[4,5-c]pyridin-2-yl)-1H-indazol-5-yl)pyridin-3-yl)pentanamide]: the negative logarithm of the EC50 (pEC50) in assay [1] is 6.34. In addition, in assay [2], the pIC50 is 7.80.
The corresponding values for `CN(C)CCNc1cc(F)cc(-c2nccc3[nH]c(-c4n[nH]c5ccc(-c6cncc(CNCC7CCCC7)c6)cc45)nc23)c1` [Compound 440, N^1-(3-(2-(5-(5-(((Cyclopentylmethyl)amino)methyl)pyridin-3-yl)-1H-indazol-3-yl)-1H-imidazo[4,5-c]pyridin-4-yl)-5-fluorophenyl)-N^2,N^2-dimethylethane-1,2-diamine] are 8.05 and 6.27.
The corresponding values for `Fc1cccc(-c2nccc3[nH]c(-c4n[nH]c5ccc(C6CCNCC6)cc45)nc23)c1` [Compound 1769, 4-(3-Fluorophenyl)-2-(5-(piperidin-4-yl)-1H-indazol-3-yl)-1H-imidazo[4,5-c]pyridine] are 6.17 and 5.63.
The corresponding values for `Fc1cccc(-c2nccc3[nH]c(-c4n[nH]c5ccc(C6=CCNCC6)cc45)nc23)c1` [Compound 1770, 4-(3-Fluorophenyl)-2-(5-(1,2,3,6-tetrahydropyridin-4-yl)-1H-indazol-3-yl)-1H-imidazo[4,5-c]pyridine] are 5.00 and 6.18.
The molecule `Fc1cccc(-c2nccc3[nH]c(-c4n[nH]c5ccc(-c6cn[nH]c6)cc45)nc23)c1` [Compound 1771, 2-(5-(1H-Pyrazol-4-yl)-1H-indazol-3-yl)-4-(3-fluorophenyl)-1H-imidazo[4,5-c]pyridine] showed a pEC50 in assay [1] of 5.00. This molecule also showed a pIC50 in assay [2] of 8.40.
For `Cn1cc(-c2ccc3[nH]nc(-c4nc5c(-c6cccc(F)c6)nccc5[nH]4)c3c2)cn1` [Compound 1772, 4-(3-Fluorophenyl)-2-(5-(1-methyl-1H-pyrazol-4-yl)-1H-indazol-3-yl)-1H-imidazo[4,5-c]pyridine], the pEC50 in assay [1] is 5.00. For the same molecule, in assay [2], the negative-log IC50 (pIC50) is 7.96.
The corresponding values for `NC1CN(c2cncc(-c3ccc4[nH]nc(-c5nc6c(-c7cccc(F)c7)nccc6[nH]5)c4c3)n2)C1` [Compound 1774, 1-(6-(3-(4-(3-Fluorophenyl)-1H-imidazo[4,5-c]pyridin-2-yl)-1H-indazol-5-yl)pyrazin-2-yl)azetidin-3-amine] are 6.99 and 6.77.
With `Fc1cccc(-c2nccc3[nH]c(-c4n[nH]c5ccc(-c6cncc(OC7CCCCC7)c6)cc45)nc23)c1` [Compound 1775, 2-(5-(5-(Cyclohexyloxy)pyridin-3-yl)-1H-indazol-3-yl)-4-(3-fluorophenyl)-1H-imidazo[4,5-c]pyridine], the pEC50 in assay [1] was 8.05. The molecule also showed a pIC50 in assay [2] of 6.60.
The corresponding values for `Fc1cccc(-c2nccc3[nH]c(-c4n[nH]c5ccc(-c6cncc(OC7CCNCC7)c6)cc45)nc23)c1` [Compound 1776, 4-(3-Fluorophenyl)-2-(5-(5-(piperidin-4-yloxy)pyridin-3-yl)-1H-indazol-3-yl)-1H-imidazo[4,5-c]pyridine] are 7.42 and 6.11.
In the same order, the values of `O=C(CC1CCNCC1)Nc1cncc(-c2ccc3[nH]nc(-c4nc5c(-c6cccc(F)c6)nccc5[nH]4)c3c2)c1` [Compound 1777, N-(5-(3-(4-(3-Fluorophenyl)-1H-imidazo[4,5-c]pyridin-2-yl)-1H-indazol-5-yl)pyridin-3-yl)-2-(piperidin-4-yl)acetamide] are 6.97 and 6.61.
In assay [1], `CN(C)CCOc1cncc(-c2ccc3[nH]nc(-c4nc5c(-c6cccc(F)c6)nccc5[nH]4)c3c2)c1` [Compound 1779, 2-((5-(3-(4-(3-Fluorophenyl)-1H-imidazo[4,5-c]pyridin-2-yl)-1H-indazol-5-yl)pyridin-3-yl)oxy)-N,N-dimethylethan-1-amine] showed a pEC50 of 7.39. Also, in assay [2], the pIC50 is 6.72.
